Experimental data as given in paper PMC7969932, “Population pharmacokinetics and dose optimization of vancomycin in neonates” (Scientific Reports, 2021).

What was measured:
[1] = Population pharmacokinetic modeling of vancomycin (NONMEM, one-compartment, first-order elimination; bootstrap, pc-VPC)
Description: For the analysis of vancomycin population pharmacokinetic parameters, nonlinear mixed-effect modeling was performed using NONMEM ver. 7.3 (Icon Development Solutions, Ellicott City, MD, USA) in conjunction with Perl Speaks NONMEM (PsN ver. 4.4.0), Pirana (ver. 2.9.7), and Xpose (ver. 4.0) contained in the R software package (ver. 3.5.0; http://www.r-project.org). The population analysis was conducted using the first-order conditional estimation method (FOCE) with ε–η interaction (FOCE INTER). One- and two-compartment models with first-order elimination were evaluated as potential structural pharmacokinetic models. The fixed-effect parameters were total clearance (CL) and volume of distribution (V) for the one-compartment model, and total CL, central V (V1), peripheral V (V2), and inter-compartmental CL (Q) for the two-compartment model. Possible correlations among the interindividual variability for pharmacokinetic parameters in the model were assessed by the OMEGA BLOCK functionality. Allometric scaling was applied to CL and isometric scaling was applied to V to standardize the pharmacokinetic parameters. The final allometric model was as follows: 3 CL=θCL×(WTi/70)^0.75 4 V=θV×(WTi/70)^1 where CL is the clearance in the ith individual with body weight WTi; θCL is the typical CL value in a standardized adult (70 kg); and θv is the typical V in a standardized adult (70 kg). Interindividual variability in the PK parameters was analyzed using exponential and power models. Covariance between interindividual variability was estimated using a variance–covariance matrix. Residual variability was attempted using additive, proportional, and combined models.
Covariates were investigated for the population modeling using linear, proportional, power, and exponential functions. […] When objective function value was decreased by at least 3.84 (χ^2-test, P < 0.05) from the structural model during the forward selection, the covariate was included in the model. All covariates that met the criteria were added to develop the full model. Then, during backward elimination, any covariate with an increase of at least 6.64 (χ^2-test, P < 0.01) was kept in the model. The categorical covariates tested were as follows: sex (where female = 1, male = 0), and types of delivery (where NsvD = 0, Csec = 1). The continuous covariates tested were body weight, blood urea nitrogen, SCr, protein, albumin, neutrophil, AST, ALT, CRP, WBC, height, PMA, PNA, CLcr, and gestational age.
Model validation was performed via three methods: graphical diagnostics using a goodness-of-fit plot, bootstrapping, and a pc-VPC. Individual observed vs. individual-predicted values and conditional weighted residual vs. time or population-predicted values or individual-predicted values were plotted using R for NONMEM. Bootstrap datasets were repeated 1,000 times using the final model; the pc-VPC was performed as a diagnostic plot.

[2] = Css,trough 15–20 μg/mL, neonates; cited from earlier work
Excerpt: (§1) There are numerous approaches to determining the adequate dosage regimen of vancomycin in neonates. To reflect PD and PK, area-under-the-curve concentrations versus time to the minimum inhibitory concentrations (AUC: MIC) can be used.

[3] = cited from earlier work
Excerpt: as §1

[4] = 1000 resampled data sets (993 successful), per 70 kg

Question: Which results are given for CN[C@H](CC(C)C)C(=O)N[C@H]1C(=O)N[C@@H](CC(N)=O)C(=O)N[C@H]2C(=O)N[C@H]3C(=O)N[C@H](C(=O)N[C@H](C(=O)O)c4cc(O)cc(O)c4-c4cc3ccc4O)[C@H](O)c3ccc(c(Cl)c3)Oc3cc2cc(c3O[C@@H]2O[C@H](CO)[C@@H](O)[C@H](O)[C@H]2O[C@H]2C[C@](C)(N)[C@H](O)[C@H](C)O2)Oc2ccc(cc2Cl)[C@H]1O [vancomycin]?
Answer: θ1, typical value of clearance, Bootstrap median (95% CI) [1, 4]: 2.07 (1.94, 2.21) L/h; θ4, typical value of volume of distribution, Bootstrap median (95% CI) [1, 4]: 45.7 (41.6, 50.6) L; θ2, power of PMA/31.7 on clearance, Estimate (%RSE) ([1]; final model): 0.795 (26%); θ3, power of CLcr/50.3 on clearance, Estimate (%RSE) ([1]; final model): 0.741 (6%); θ4, typical value of volume of distribution (TVV), Estimate (%RSE) ([1]; standardized to 70 kg (power 1), final model): 45.6 (5%) L; Nephrotoxicity [2]: higher nephrotoxicity; Css,trough that could satisfy AUC0-24/MIC ≥ 400 with less toxicity [3]: 5 to 15 µg/mL; Trough concentrations that can achieve AUC0-24/MIC ≥ 400 [3]: around 10 mg/L
